The source of these data is the NIST ThermoML archive (doi:10.1021/je900346t).

The structures appear in SMILES notation. Numbers after ± are expanded uncertainties.

For data set [1] the following is noted: Crystal; DTA.
The nature of data set [2]: Molar enthalpy of transition or fusion. The settings on record: Crystal; DSC.

Consider `CCCCCCCCCCCCCCCc1cccc(O)c1` [3-pentadecylphenol], for which the Normal melting temperature in data set [1] amounted to 49.20 ± 1.1 °C. In data set [2], the “Molar enthalpy of transition or fusion” value worked out at 38.1 ± 0.82 kJ/mol.
